Where “and” joins values, the source holds several entries; their conditions need not be identical. Equal values may be shown once. Where no end group is shown, it is not given here. Side-chain parts run from the residue outwards. rhodamine‑labelled PEGylated perfluoro‑15‑crown‑5 ether nanoemulsion = not defined here; carboxyfluorescein = N-terminal fluorescence label (CF)
Legend:
infarcted heart = assay: Cardiac 19F MRI signal after MI (in vivo, time course, correlation with LGE); design: species or system mouse
Protocol: For labeling of neutrophils before MI, mice were anesthetized (1.5% isoflurane) and 1 mmol per kg BW PFCs were injected intravenously via the tail vein on 3 consecutive days. Induction of MI was essentially carried out as previously described. For inhibiting the egress of neutrophils from the bone marrow in a subset of experiments, a cocktail of neutralizing antibodies was injected i.p. 1 h before and 4 h after MI (CXCL1, CXCL2, G-CSF, GM-CSF, 50 µg each, Thermo Fisher). To generate neutropenic mice, 48 and 24 h before MI, 500 µg of the Ly6G-depletion antibody (BioXcell, clone 1A8) was injected i.p. in independent experiments.
All experiments were performed with a vertical 9.4 T Bruker AVANCE^III Wide Bore NMR spectrometer (Bruker) driven by ParaVision 5.1 and operating at frequencies of 400.21 MHz for ^1H measurements and 376.54 MHz for ^19F measurements using a Bruker microimaging unit, Micro2.5, with actively shielded gradient sets (1.5 T m^−1). Data were acquired using a 25-mm quadrature ^19F resonator with one channel tunable to both ^1H and ^19F. Mice were anesthetized with 1.5% isoflurane and kept at 37 °C. After acquisition of morphological ^1H images, the resonator was tuned to ^19F, and anatomically matching ^19F images were recorded essentially as described previously.
Images of mouse hearts were acquired in short-axis orientation using a retrospectively triggered fast low-angle shot cine sequence (IntragateFLASH, Bruker) as described previously. Thereafter, hearts were excised, washed and fixed with PFA for 3D high-resolution post-mortem MRI: ^1H FISP, TR = 4 ms, FOV = 1.00 × 1.00 × 1.00 cm³, matrix = 128 × 64 × 128, tAcq 151 min; ^19F RARE, TR = 2,500 ms, FOV = 1.00 × 1.00 × 1.00 cm³, matrix = 32 × 32 × 32, tAcq = 10 h.

murine neutrophils [1] = assay: Cell surface activation markers CD11b, CD62L, CD63 on murine blood neutrophils; assay type: in vivo, mouse; conditions: mNPPFCs 1 mM per kg BW i.v., blood 2 h later; LPS = LPS-doped Matrigel s.c. 24 h before (positive control); individual experiments, only first lines of sheet shown
Protocol: […] per kg BW ^mNPPFCs or saline were injected i.v., and, 2 h later, neutrophils were isolated from the blood and stained for CD11b, CD62L and CD63. As a positive control, mice were implanted with LPS-doped Matrigel 24 h before blood withdrawal.
A total of 1 × 10^6 isolated human neutrophils were incubated with 50 µl ml^−1 ^hNPPFCs, 1 µg ml^−1 LPS or only DMEM for 1 h at 37 °C followed by intense washing with MACS buffer. Afterward, 1 × 10^5 cells were transferred into 96-well plates and stained for CD11b and CD63 (eBioscience, clone HSC6) or CD66b (eBioscience, clone G10F5) for 20 min at 4 °C. After two washing steps with MACS buffer, cells were analyzed by flow cytometry. A total of 1 × 10^5 isolated murine neutrophils were transferred into a 96-well plate and stained for CD11b, CD62L and CD63 for 20 min at 4 °C. After two washing steps with MACS buffer, cells were analyzed by flow cytometry.
Extended Data Fig. 9 Impact of ^mNPPFCs on murine neutrophils. a, Differentially expressed genes (DEGs) identified by bulk RNA sequencing of murine blood neutrophils after intravenous injection of ^mNPPFCs, ^ConPFCs or NaCl (Ctrl) as control. […] In total 25655 RNA transcripts were analyzed. b, Cell surface expression of CD11b, CD62L, CD63 on blood derived murine neutrophils after intravenous application of NaCl (Ctrl) or ^mNPPFCs. As a positive control, matrigel doped with 50 µg LPS was subcutaneously implanted into the neck of mice and after 24 h, neutrophils were isolated from the blood and analyzed by flow cytometry. c, Impact of ^mNPPFC incubation on neutrophil migration, phagocytosis and release of reactive oxygen species (ROS). Migration was determined in vivo by assessment of the infiltration of neutrophils into a matrigel/LPS plug; phagocytosis was determined by intravenous injection of FITC-labelled E.coli into mice and the subsequent removal and flow cytometric analysis of blood neutrophils; extracellular ROS were measured within the cell supernatant of blood neutrophils by oxidation of DHE (dihydroethidium) followed by UPLC analysis. […]

murine neutrophils [2] = assay: Phagocytosis of FITC-labeled E. coli particles by murine neutrophils after mNPPFC injection; assay type: in vivo, mouse; conditions: in the presence of the targeting PFCs
Protocol: […] per kg BW ^mNPPFCs or saline were injected i.v., followed by 100 µl FITC-labeled Escherichia coli particles (Thermo Fisher) 2 h later. […] Thereafter, FITC labeling was determined by flow cytometry.
Extended Data Fig. 9 Impact of ^mNPPFCs on murine neutrophils. a, Differentially expressed genes (DEGs) identified by bulk RNA sequencing of murine blood neutrophils after intravenous injection of ^mNPPFCs, ^ConPFCs or NaCl (Ctrl) as control. Volcano plots of DEGs for murine neutrophils of animals treated with saline compared to ^mNPPFCs (left), or ^ConPFCs compared to ^mNPPFC (right). […] BF = Bonferroni corrected p-values of the false discovery rate. In total 25655 RNA transcripts were analyzed. b, Cell surface expression of CD11b, CD62L, CD63 on blood derived murine neutrophils after intravenous application of NaCl (Ctrl) or ^mNPPFCs. As a positive control, matrigel doped with 50 µg LPS was subcutaneously implanted into the neck of mice and after 24 h, neutrophils were isolated from the blood and analyzed by flow cytometry. c, Impact of ^mNPPFC incubation on neutrophil migration, phagocytosis and release of reactive oxygen species (ROS). […]

mNPPFCs: PEGylated rhodamine-labeled perfluoro-15-crown-5 ether nanoemulsion (maleimide PFCs) coupled with murine neutrophil-specific peptide mNP (carboxyfluorescein-DFYKPMPNLRITGGGC([maleimide‑PEG2000‑DSPE-rhodamine‑labelled PEGylated perfluoro‑15‑crown‑5 ether nanoemulsion]); reading uncertain; also: printed as DFYKPMPNLRIT-GGG-C)
fluorine signal (infarcted heart; cardiac 19F MRI after MI, paired with infarct size (correlation), panel A raw data, single animals): 1143260.00 and 189700.00 and 404383.00 and 657147.00 and 1197310.00 and 718148.00 | cardiac 19F signal, Sham (infarcted heart; in vivo 19F MRI, Sham (substance not given), single animals): 79451 and 78829 and 92374 and 48275 and 58581 and 66158 | cardiac 19F signal after MI (infarcted heart; in vivo 19F MRI, mice with MI, panel C raw data, single animals): 325890 and 570535 and 698329 and 580045 and 224755 and 325233 and 312147 and 344837 and 567674 and 107303 and 326458 and 189700 and 404383 and 657147 and 718148 | cardiac 19F signal, 1h (infarcted heart; time course after MI, 1h, panel B raw data, single animals #1-#6): 153579.00 and 401063.98 and 321133.97 and 254881.37 and 314977.20 and 322448.95 | cardiac 19F signal, 3h (infarcted heart; time course after MI, 3h, single animals): 445129.00 and 539772.19 and 408267.20 and 394516.08 and 617532.55 | cardiac 19F signal, 6h (infarcted heart; time course after MI, 6h, single animals): 643519.00 and 466668.95 and 433563.34 and 788134.14 and 582620.85 | cardiac 19F signal, 24h (infarcted heart; time course after MI, 24h, single animals): 1143260.00 and 608391.86 and 841920.06 and 1092840.00 and 1200290.00 and 913025.41 | cardiac 19F signal, 48h (infarcted heart; time course after MI, 48h, single animals): 563325.00 and 546371.63 and 835937.39 and 937854.02 and 656412.62 | cardiac 19F signal, 72h (infarcted heart; time course after MI, 72h, single animals): 589807.00 and 491276.01 and 1221090.00 and 1312800.00 and 804982.61 | cell surface expression of CD11b on blood derived murine neutrophils, flow cytometry (murine neutrophils [1]): 2655 and 2691 and 3361 and 1842 | cell surface expression of CD62L on blood derived murine neutrophils, flow cytometry (murine neutrophils [1]): 1971 and 1966 and 1558 and 2425 | cell surface expression of CD63 on blood derived murine neutrophils, flow cytometry (murine neutrophils [1]): 135 and 126 and 105 | phagocytosis by murine neutrophils (murine neutrophils [2]): unaltered
